According to patent US5420335A, “Parenteral nutrients based on watersoluble glycerol bisacetoacetates” (priority 1993, dated 1995):
Where “and” joins values, the source holds several entries; their conditions need not be identical. Identical values can stand only once. Entries after “also recorded” stand apart in the source; their conditions may differ.

Experiments:
[1] = Oral dietary nitrogen (food) intake of intravenously infused rats; assay type: in vivo, rat (male Sprague-Dawley); conditions: in words
Method: (§1) Water was available ad libitum at all times.
(§2) The vein was then ligated dorsally to the catheter. […] Body weights were measured daily.
(§3) Infusate volume, oral food intake, body weight and urinary volume and total nitrogen were monitored daily for each rat. Infusate volume and food intake were determined by weighing the appropriate container at the start and end of each 24 hr. period. Measurements were recorded between 9 and 10 AM each day. At the end of the 7th day, rats were sacrificed, and blood and liver were harvested. Plasma was separated for measurement of free fatty acids, glucose, and ketone bodies. Liver was weighed and a sample was fixed in buffered formalin for gross histology.
(§4) The data were analyzed for significance by the one-way analysis of variance with repeated measures and comparing the effect of dietary treatment on each day. […] The null hypothesis was concluded invalid if p≤0.05. The analysis of variance was computed on a SAS statistical package.
(§5) This compound has an estimated energy density of 4.86 kcal/gram based on thermodynamic data from similar compounds.

[2] = Daily urinary nitrogen losses of intravenously infused rats; assay type: in vivo, rat (male Sprague-Dawley); conditions: for Urinary Nitrogen: Table 8, Example 4
Method: as §1, §2, §3
(§6) The data were analyzed for significance by the one-way analysis of variance with repeated measures and comparing the effect of dietary treatment on each day. […] The null hypothesis was concluded invalid if p≤0.05. The analysis of variance was computed on a SAS statistical package. […]

[3] = Nitrogen balance (difference between intake and urinary output); assay type: in vivo, rat (male Sprague-Dawley); conditions: for Nitrogen Balance, Difference Between Intake And Output: average of 9 rats
Method: as §1, §2, §3, §4
FIG. 3 illustrates the difference between oral intake and urinary nitrogen output which is termed nitrogen balance. It is representative of nitrogen balance because urinary nitrogen is the major route for body loss of nitrogen.
The experimental compound contains 8% nitrogen. With an infusion of 5.6 grams/day, infused nitrogen would provide approximately 450 mg more than that listed in the data tables. The final balance figures includes this number which is calculated based on the actual daily infusion rate for each rat.

[4] = Daily body weight of intravenously infused rats; assay type: in vivo, rat (male Sprague-Dawley); conditions: for Daily Body Weight: Table 10, Example 4
Method: as §1, §2, §3, §4, §5

[5] = Liver weight after 7 days of infusion; assay type: in vivo, rat (male Sprague-Dawley); conditions: Table 11, Example 4; for Liver/100 GM: as percentage of body weight; for Liver Wt.: end of day 7
Method: as §3, §6

[6] = Plasma free fatty acids, glucose and ketone bodies after 7 days of infusion; assay type: in vivo, rat (male Sprague-Dawley); conditions: for ACAC / BOHB / Glucose / Total FFA: Table 11, Example 4
Method: as §3, §4

[7] = Mortality and gross toxicity on intravenous infusion; conditions: in words; conclusion
Method: as §1, §2

[8] = Overall evaluation as a parenteral nutrient; assay type: in vivo, rat (male Sprague-Dawley); conditions: in words
Method: as §1, §2, §3, §4

[9] = Oral dietary nitrogen (food) intake of intravenously infused rats; assay type: in vivo, rat (male Sprague-Dawley); conditions: Table 7, Example 4, oral only

## CC(=O)CC(=O)NCC(O)CO (centres unmarked) [Compound 2, 1-acetoacetamido-2,3-propane diol]
[1]; Example 4
  appetite depression: did not depress the rats appetite
[1]; vs saline and other groups, 7 days
  differences in dietary nitrogen intake among the three groups: no differences in dietary nitrogen intake among the three groups
[2]; day 1, average of 9 rats
  Urinary Nitrogen: 477 mg
[2]; day 1, individual rat
  Urinary Nitrogen: 562.1 mg and 483.2 mg and 380.8 mg and 411.4 mg and 401.7 mg and 527.6 mg and 477.8 mg and 509.6 mg and 536.4 mg
[2]; day 2, average of 9 rats
  Urinary Nitrogen: 550 mg
[2]; day 2, individual rat
  Urinary Nitrogen: 661.5 mg and 542.5 mg and 499.8 mg and 464 mg and 462.84 mg and 583.3 mg and 486 mg and 528 mg and 718.2 mg
[2]; day 3, average of 9 rats
  Urinary Nitrogen: 576 mg
[2]; day 3, individual rat
  Urinary Nitrogen: 671.9 mg and 704.1 mg and 548.1 mg and 413.8 mg and 619.3 mg and 603.8 mg and 315.2 mg and 622.2 mg and 682.4 mg
[2]; day 4, average of 9 rats
  Urinary Nitrogen: 531 mg
[2]; day 4, individual rat
  Urinary Nitrogen: 559.8 mg and 477.4 mg and 468.3 mg and 385 mg and 499.7 mg and 603.7 mg and 494.3 mg and 614.8 mg and 674.2 mg
[2]; day 5, average of 9 rats
  Urinary Nitrogen: 479 mg
[2]; day 5, individual rat
  Urinary Nitrogen: 599 mg and 456 mg and 434.3 mg and 300.2 mg and 365.9 mg and 503.5 mg and 525.1 mg and 552.9 mg and 572.3 mg
[2]; day 6, average of 9 rats
  Urinary Nitrogen: 548 mg
[2]; day 6, individual rat
  Urinary Nitrogen: 569 mg and 659.4 mg and 440.8 mg and 286.1 mg and 545.2 mg and 538.5 mg and 608.2 mg and 599 mg and 686.7 mg
[2]; day 7, average of 9 rats
  Urinary Nitrogen: 567 mg
[2]; day 7, individual rat
  Urinary Nitrogen: 602 mg and 613.5 mg and 519.4 mg and 81.4 mg and 588.3 mg and 633.1 mg and 678 mg and 683.9 mg and 706.8 mg
[2]; in words, 7 days
  urinary nitrogen losses: reflects the greater nitrogen intake by rats infused with the experimental compound
[3]; Table 9, Example 4, infused nitrogen not considered, day 1
  Nitrogen Balance, Difference Between Intake And Output: -198 mg N
[3]; Table 9, Example 4, infused nitrogen not considered, day 2
  Nitrogen Balance, Difference Between Intake And Output: -173 mg N
[3]; Table 9, Example 4, infused nitrogen not considered, day 3
  Nitrogen Balance, Difference Between Intake And Output: -146 mg N
[3]; Table 9, Example 4, infused nitrogen not considered, day 4
  Nitrogen Balance, Difference Between Intake And Output: -142 mg N
[3]; Table 9, Example 4, infused nitrogen not considered, day 5
  Nitrogen Balance, Difference Between Intake And Output: -109 mg N
[3]; Table 9, Example 4, infused nitrogen not considered, day 6
  Nitrogen Balance, Difference Between Intake And Output: -114 mg N
[3]; Table 9, Example 4, infused nitrogen not considered, day 7
  Nitrogen Balance, Difference Between Intake And Output: -101 mg N
[3]; Table 9A, Example 4, infused nitrogen included, day 1
  Nitrogen Balance, Difference Between Intake And Output: 256 mg N
[3]; Table 9A, Example 4, infused nitrogen included, day 2
  Nitrogen Balance, Difference Between Intake And Output: 258 mg N
[3]; Table 9A, Example 4, infused nitrogen included, day 3
  Nitrogen Balance, Difference Between Intake And Output: 361 mg N
[3]; Table 9A, Example 4, infused nitrogen included, day 4
  Nitrogen Balance, Difference Between Intake And Output: 302 mg N
[3]; Table 9A, Example 4, infused nitrogen included, day 5
  Nitrogen Balance, Difference Between Intake And Output: 317 mg N
[3]; Table 9A, Example 4, infused nitrogen included, day 6
  Nitrogen Balance, Difference Between Intake And Output: 299 mg N
[3]; Table 9A, Example 4, infused nitrogen included, day 7
  Nitrogen Balance, Difference Between Intake And Output: 336 mg N
[3]; in words, 7 days
  nitrogen balance: negative nitrogen balance if nitrogen content of the compound is not considered
[4]; day 0, average of 9 rats
  Daily Body Weight: 244 Grams
[4]; day 0, individual rat
  Daily Body Weight: 247 Grams and 223 Grams and 252 Grams and 251 Grams and 259 Grams and 236 Grams and 243 Grams and 237 Grams
[4]; day 1, average of 9 rats
  Daily Body Weight: 234 Grams
[4]; day 1, individual rat
  Daily Body Weight: 243 Grams and 207 Grams and 240 Grams and 230 Grams and 244 Grams and 242 Grams and 227 Grams and 239 Grams and 237 Grams
[4]; day 2, average of 9 rats
  Daily Body Weight: 234 Grams
[4]; day 2, individual rat
  Daily Body Weight: 247 Grams and 205 Grams and 239 Grams and 227 Grams and 243 Grams and 230 Grams and 235 Grams and 237 Grams
[4]; day 3, average of 9 rats
  Daily Body Weight: 234 Grams
[4]; day 3, individual rat
  Daily Body Weight: 251 Grams and 204 Grams and 238 Grams and 223 Grams and 240 Grams and 243 Grams and 235 Grams and 233 Grams
[4]; day 4, average of 9 rats
  Daily Body Weight: 233 Grams
[4]; day 4, individual rat
  Daily Body Weight: 255 Grams and 199 Grams and 234 Grams and 208 Grams and 235 Grams and 233 Grams and 244 Grams
[4]; day 5, average of 9 rats
  Daily Body Weight: 236 Grams
[4]; day 5, individual rat
  Daily Body Weight: 253 Grams and 246 Grams and 234 Grams and 212 Grams and 230 Grams and 241 Grams and 236 Grams and 237 Grams
[4]; day 6, average of 9 rats
  Daily Body Weight: 235 Grams
[4]; day 6, individual rat
  Daily Body Weight: 251 Grams and 242 Grams and 233 Grams and 204 Grams and 243 Grams and 248 Grams and 232 Grams and 231 Grams
[4]; day 7, average of 9 rats
  Daily Body Weight: 228 Grams
[4]; day 7, individual rat
  Daily Body Weight: 250 Grams and 218 Grams and 232 Grams and 196 Grams and 237 Grams and 219 Grams and 236 Grams
[4]; in words, 7 days
  change in body weight: held relatively constant until the final day when they lose weight; also recorded: did not lose weight nor did they gain
[5]; average
  Liver/100 GM: 3.891
  Liver Wt.: 8.842
[5]; individual rat
  Liver/100 GM: 3.621 and 5.165 and 3.928 and 3.739 and 4.018 and 3.066 and 4.304 and 3.228 and 3.95
  Liver Wt.: 9.0537 and 11.2604 and 9.1128 and 7.3291 and 9.3228 and 7.2672 and 9.4265 and 7.4879 and 9.3213
[6]; plasma, average
  ACAC: 0.195 mmol/L
  BOHB: 0.897 mmol/L
  Glucose: 108.589 mg/dL
  Total FFA: 0.580 mmol/L
[6]; plasma, individual rat
  ACAC: 0.0958 mmol/L and 0.1231 mmol/L and 0.1385 mmol/L and 0.1032 mmol/L and 0.3378 mmol/L and 0.0999 mmol/L and 0.3415 mmol/L and 0.3225 mmol/L
  BOHB: 0.8481 mmol/L and 0.9004 mmol/L and 0.2501 mmol/L and 1.13 mmol/L and 0.8685 mmol/L and 1.3611 mmol/L and 0.5709 mmol/L and 1.163 mmol/L and 0.9826 mmol/L
  Glucose: 109.8 mg/dL and 105.2 mg/dL and 112.1 mg/dL and 111.4 mg/dL and 121 mg/dL and 91.1 mg/dL and 132.1 mg/dL and 114.6 mg/dL and 80 mg/dL
  Total FFA: 0.306 mmol/L and 0.472 mmol/L and 0.376 mmol/L and 1.408 mmol/L and 0.546 mmol/L and 0.651 mmol/L and 0.286 mmol/L and 0.676 mmol/L and 0.498 mmol/L
[6]; in words, end of day 7
  blood / plasma glucose: low blood glucose
[6]; in words, plasma, end of day 7
  ketone bodies: absence of elevated plasma acetoacetate; also recorded: neither of the ketone bodies were elevated when compared to the saline infused rats
[7]
  lethality: not acutely nor chronically lethal
[8]
  efficacy as parenteral nutrient / energy source: not a good source of energy
[8]; listed as 1-acetoacetamido-2,3-propane diol
  efficacy as parenteral nutrient / energy source: ineffective as parenteral nutrients
[9]; day 1, average of 9 rats
  Dietary Nitrogen Intake: 279 MG N
[9]; day 1, individual rat
  Dietary Nitrogen Intake: 513.24 MG N and 92.12 MG N and 164.5 MG N and 138.18 MG N and 171.08 MG N and 493.5 MG N and 440.86 MG N and 355.32 MG N
[9]; day 2, average of 9 rats
  Dietary Nitrogen Intake: 376 MG N
[9]; day 2, individual rat
  Dietary Nitrogen Intake: 532.98 MG N and 256.62 MG N and 526.4 MG N and 59.22 MG N and 282.94 MG N and 506.66 MG N and 263.2 MG N and 447.44 MG N
[9]; day 3, average of 9 rats
  Dietary Nitrogen Intake: 429 MG N
[9]; day 3, individual rat
  Dietary Nitrogen Intake: 532.98 MG N and 407.96 MG N and 546.14 MG N and 118.44 MG N and 506.66 MG N and 500.08 MG N and 210.56 MG N and 513.24 MG N and 526.4 MG N
[9]; day 4, average of 9 rats
  Dietary Nitrogen Intake: 388 MG N
[9]; day 4, individual rat
  Dietary Nitrogen Intake: 480.34 MG N and 263.2 MG N and 473.76 MG N and 65.8 MG N and 296.1 MG N and 519.82 MG N and 355.32 MG N
[9]; day 5, average of 9 rats
  Dietary Nitrogen Intake: 369 MG N
[9]; day 5, individual rat
  Dietary Nitrogen Intake: 480.34 MG N and 427.7 MG N and 355.32 MG N and 0 MG N and 52.64 MG N and 500.08 MG N and 519.82 MG N and 506.66 MG N
[9]; day 6, average of 9 rats
  Dietary Nitrogen Intake: 434 MG N
[9]; day 6, individual rat
  Dietary Nitrogen Intake: 526.4 MG N and 421.12 MG N and 388.22 MG N and 0 MG N and 519.82 MG N and 500.08 MG N and 513.24 MG N and 506.66 MG N
[9]; day 7, average of 9 rats
  Dietary Nitrogen Intake: 466 MG N
[9]; day 7, individual rat
  Dietary Nitrogen Intake: 526.4 MG N and 546.14 MG N and 506.66 MG N and 0 MG N and 532.98 MG N and 519.82 MG N
